Experimental data reported in article PMC6121230 (International Journal of Molecular Sciences, 2018).

Columns and labels:
Conditions in all cases: 50 mM Tris pH 8.0; lipid monolayer, interfacial binding (not a 1:1 site)
VpPLD-(His)6-WT = tested on: VpPLD-(His)6-WT
(His)6-VpPLD-WT [1] = tested on: (His)6-VpPLD-WT
(His)6-VpPLD-WT [2] = tested on: (His)6-VpPLD-WT; remark: listed apart in the source
(His)6-VpPLD-Δ451-487 = tested on: (His)6-VpPLD-Δ451-487
(His)6-VpPLD-Δ469-487 = tested on: (His)6-VpPLD-Δ469-487
(His)6-VpPLD-Δ434-487 = tested on: (His)6-VpPLD-Δ434-487
VpPLD-(His)6-Δ1-34 = tested on: VpPLD-(His)6-Δ1-34
VpPLD-(His)6-Δ1-25 = tested on: VpPLD-(His)6-Δ1-25

CCCCCCCCCCCCCC(=O)OC[C@H](COP(=O)(O)OCC(O)CO)OC(=O)CCCCCCCCCCCCC (mixture of isomers) [DMPG, 1,2-Dimyristoyl-sn-glycero-3-phospho-rac-glyceol] was tested, and the MIP (VpPLD-(His)6-WT) was 26.8 ± 0.9 mN m^-1 and the synergy factor a ((His)6-VpPLD-WT [1]) was 0.29 ± 0.03.
Work on CCCCCCCCCCCCCC(=O)OC[C@H](COP(=O)([O-])OCC[N+](C)(C)C)OC(=O)CCCCCCCCCCCCC [DMPC, 1,2-Dimyristoyl-sn-glycero-3-phosphocholine] yielded an MIP (VpPLD-(His)6-WT) of 37.4 ± 1.3 mN m^-1, an MIP ((His)6-VpPLD-WT [2]) of 29.6 ± 2.6 mN m^-1 and an MIP ((His)6-VpPLD-Δ451-487) of 34.9 ± 3.7 mN m^-1. For the same compound, the MIP ((His)6-VpPLD-Δ469-487) was 29.8 ± 1.8 mN m^-1.
Work on CCCCCCCCCCCCCC(=O)OC[C@H](COP(=O)(O)OCCN)OC(=O)CCCCCCCCCCCCC [DMPE, 1,2-Dimyristoyl-sn-glycero-3-phosphoethanolamine] yielded an MIP ((His)6-VpPLD-Δ434-487) of 45.1 ± 2.8 mN m^-1, an MIP (VpPLD-(His)6-WT) of 29.8 ± 2.8 mN m^-1 and an MIP ((His)6-VpPLD-WT [2]) of 32.8 ± 3.7 mN m^-1. For the same compound, the MIP (VpPLD-(His)6-Δ1-34) was 47.8 ± 8.7 mN m^-1, the MIP (VpPLD-(His)6-Δ1-25) was 39.4 ± 6.2 mN m^-1 and the MIP ((His)6-VpPLD-Δ469-487) was 26.2 ± 2.7 mN m^-1.
Compound CCCCCCCCCCCCCC(=O)OC[C@H](COP(=O)(O)OC[C@H](N)C(=O)O)OC(=O)CCCCCCCCCCCCC [DMPS, 1,2-Dimyristoyl-sn-glycero-3-phospho-L-serine] has an MIP ((His)6-VpPLD-Δ434-487) of 40.4 ± 4.6 mN m^-1, an MIP (VpPLD-(His)6-WT) of 38.5 ± 2.7 mN m^-1 and an MIP ((His)6-VpPLD-WT [2]) of 34.8 ± 0.6 mN m^-1. For the same compound, the MIP (VpPLD-(His)6-Δ1-34) was 36.5 ± 2.7 mN m^-1, the MIP (VpPLD-(His)6-Δ1-25) was 30.4 ± 3.2 mN m^-1 and the MIP ((His)6-VpPLD-Δ451-487) was 36.4 ± 2.1 mN m^-1.
